Experimental data reported in patent US9765381B2, “Mutated genes for the catalytic protein of oplophorus luciferase and use thereof” (JNC Corporation, priority 2013, dated 2017).

Assays:
[1] = Substrate specificities for amino-terminal deleted nanoKAZ; type: biochemical; conditions: for luminescence activity higher than that of coelenterazine: as luminescence substrate of the luciferase mutant, general description; for Relative luminescence activity (Imax) 6h-f-CTZ: substrate 6h-f-coelenterazine; for Relative luminescence activity (Imax) 6h-f-CTZ / Relative luminescence activity (Imax) bis-CTZ / Relative luminescence activity (Imax) f-CTZ / Relative luminescence activity (Imax) h-CTZ: relative to nanoKAZ with CTZ; for Relative luminescence activity (Imax) bis-CTZ: substrate bis-coelenterazine; for Relative luminescence activity (Imax) CTZ: substrate coelenterazine (CTZ), culture medium of CHO-K1, pcDNA3 vectors, nanoKAZ with CTZ = 1.00; for Relative luminescence activity (Imax) f-CTZ: substrate f-coelenterazine; for Relative luminescence activity (Imax) h-CTZ: substrate h-coelenterazine
Method: The enzyme solutions of amino-terminal deleted nanoKAZ used for substrate specificity studies were prepared by the method described in EXAMPLE 12, using pcDNA3 vectors (pcDNA3-ΔN2T-nKAZ, pcDNA3-ΔN3L-nKAZ, pcDNA3-ΔN4E-nKAZ, pcDNA3-ΔN5D-nKAZ and pcDNA3-ΔN6F-nKAZ) for expression of the amino-terminal deletions, which were obtained by the method described in EXAMPLE 11. After transfection to CHO-K1 cells and then incubation for 48 hours, the culture medium were collected and stored in a frozen state. The coelenterazine analogues used for substrate specificity studies were synthesized by the methods described in publications, respectively. Specifically, coelenterazine (CTZ), h-coelenterazine (h-CTZ) and f-coelenterazine (f-CTZ), 6h-f-coelenterazine (6h-f-CTZ) were synthesized by the method described in Inouye et al (2013) Biochem. Biophys. Res. Commun. 437: 23-28, and bis-coelenterazine (bis-CTZ) was synthesized by the method described in Nakamura et al, (1997) Tetrahedron Lett. 38: 6405-6406.
A luminescence reaction was started by the addition of 2 μL of the freeze-thawed culture medium on ice to 100 μL of TE containing 1 μg of coelenterazine or its analogue. The luminescence activities were measured for 10 seconds using a luminometer (manufactured by Atto Inc.: AB2200), and the maximum intensity of luminescence (Imax) of nanoKAZ was shown as a relative luminescence activity using coelenterazine as a substrate.

[2] = tested on: pcDNA3-GLsp-nanoKAZ/CHO-K1 stable expressed cell line; assay: Secretory inhibition by brefeldin A, nanoKAZ with secretory signal peptide sequence; type: cell-based, Chinese hamster; conditions: brefeldin A 5 μg/mL, 0-6 hours, compared to absence of brefeldin A, FIG. 3
Method: (§1) Using the stable expressed cell lines established in EXAMPLE 14 and EXAMPLE 15, the effect of brefeldin A that inhibits exocytosis through the trans-Golgi network by the vesicle-mediated transport was compared. Specifically, each stable expressed cell lines with 2×10^5 cells were seeded to a 6-well plate in 3 mL of Ham's F-12 medium containing 10% FBS, respectively; followed by incubation at 37° C. in a 5% CO2 incubator for 48 hours. After washing twice with 3 mL of Ham's F-12 medium containing 10% FBS, brefeldin A (manufactured by Wako Pure Chemical Industries, Ltd.) was added to the culture medium at a final concentration of 5 μg/mL. As a control experiment, cells were cultured in the absence of brefeldin A. The luminescence activity in the culture medium was determined at each incubation times at 0, 1, 3 and 6 hours, using coelenterazine as a substrate.

[3] = tested on: pcDNA3-nanoKAZ/CHO-K1 stable expressed cell line; assay: Secretory inhibition by brefeldin A, nanoKAZ without secretory signal peptide sequence; type: cell-based, Chinese hamster; conditions: brefeldin A 5 μg/mL, 0-6 hours, FIG. 4
Method: as §1

[4] = Luminescence activity of amino-terminal deleted nanoKAZ and ZZ-fused amino-terminal deleted nanoKAZ in crude enzyme solution; type: biochemical; conditions: expressed in E. coli BL21, crude enzyme solution, coelenterazine substrate, nanoKAZ = 100; for Relative luminescence activity (%, Imax) pCold-ZZ-P-: ZZ-fused (pCold-ZZ-P- vector); for Relative luminescence activity (%, Imax) pCold-: pCold- vector
Method: In order to express the amino-terminal deleted nanoKAZ in E. coli, the recombinant plasmid obtained in EXAMPLE 4 was used. The E. coli BL21 strain (Novagen, Madison, Wis.) was used as a host cell. The BL21 strain carrying the recombinant plasmid was incubated in 5 mL of Luria-Bertani medium (hereinafter designated as LB medium) containing ampicillin (50 μg/mL) at 37° C. for 18 hours. The seed culture of 0.1 mL was inoculated to 10 mL of LB medium and incubated for 3 hours, followed by cooling in an ice-water bath for 1 hour. IPTG was added to the culture medium at a final concentration of 0.1 mM, followed by incubation at 15° C. for further 17 hours. After completion of the incubation, 1 mL of the culture medium was collected by centrifugation at 10,000 rpm for 2 minutes. The collected E. coli cells were suspended in 0.5 mL of 30 mM Tris-HCl (pH 7.6)-10 mM EDTA (manufactured by Wako Pure Chemical Industries, Ltd.) (hereinafter designated as TE). The E. coli cells were disrupted by sonication for 3 seconds using a Branson model 250 sonifire (Danbury, Conn.) to give a crude enzyme solution. Then, 5 μL of the crude enzyme solution was analyzed by SDS-PAGE to confirm the protein expression (FIG. 1).
To express the ZZ-fused amino-terminal deleted nanoKAZ in E. coli, the recombinant plasmid obtained in EXAMPLE 6 was used. Crude enzyme solutions were prepared using a similar manner to EXAMPLE 5 using the E. coli BL21 strain (Novagen, Madison, Wis.) as a host cell. Then, 5 μL of the crude enzyme solution obtained was subjected to SDS-PAGE analysis to confirm the protein expression (FIG. 2).
The crude enzyme solutions obtained in EXAMPLE 5 and EXAMPLE 7 were allowed to stand in an ice-water for over 1 hour and then diluted to 50-fold in TE. By addition of 1 μL each of the crude enzyme solutions to 100 μL of TE containing 1 μg of coelenterazine (manufactured by JNC Corp.), a luminescence reaction was started. The luminescence activity was measured for 60 seconds using a luminometer (manufactured by Atto AB2200); the maximum intensity of luminescence (Imax) is given as a percentage (%).

CHO-K1 cells = assay: Luminescence activity of amino-terminal deleted nanoKAZ expressed in animal cultured cells (culture medium and cell extracts); type: cell-based, Chinese hamster; conditions: coelenterazine; for Relative luminescence activity (%, Imax) pcDNA3- Cell extracts / Relative luminescence activity (%, Imax) pcDNA3- Culture medium: lacking secretory signal peptide; for Relative luminescence activity (%, Imax) pcDNA3- Cell extracts / Relative luminescence activity (%, Imax) pcDNA3-GLsp- Cell extracts: CHO-K1, cell extracts; for Relative luminescence activity (%, Imax) pcDNA3- Culture medium / Relative luminescence activity (%, Imax) pcDNA3-GLsp- Culture medium: CHO-K1, culture medium; for Relative luminescence activity (%, Imax) pcDNA3-GLsp- Cell extracts / Relative luminescence activity (%, Imax) pcDNA3-GLsp- Culture medium: with Gaussia luciferase secretory signal peptide
Method: Chinese hamster ovary cell line CHO-K1 was cultured in Ha F-12 medium (manufactured by Wako Pure Chemical Industries, Ltd.) supplemented with 10% (v/v) fetal bovine serum (manufactured by Biowest Inc.) (hereinafter sometimes referred to as Ham's F-12 medium). The CHO-K1 cells were seeded in a 6-well plate in 1×10^5 cells/well/2 mL medium (n=2) and cultured in an incubator at 37° C. in 5% (v/v) CO2. After 24 hours, the purified recombinant plasmid was transfected to CHO-K1 cells using a FuGene HD transfection kit (manufactured by Promega Corp.) and the cells were provided for subsequent experiment. Specifically, 1 μg of the recombinant plasmid, 0.1 μg of the internal standard vector pGL4.13 [Luc2/sv40] and 3 μL of FuGene HD were added to 100 μL of the medium and allowed to stand at room temperature for 15 minutes. Subsequently, 100 μL, of the DNA-FuGene complex was added to the cells in the 6-well plate. After incubation for 44 hours, the culture medium was collected. On the other hand, the cells expressed the KAZ mutants were washed 3 times with 3 mL of 1×PBS, then suspended in 1 mL of 1×PBS and disrupted by sonication on ice. The resultant cell extracts of nanoKAZ deletion mutants was used as enzyme solutions.
Culture media containing the secreted amino-terminal deleted nanoKAZ and cell extracts of amino-terminal deleted nanoKAZ as the enzyme solutions were prepared in the same manner as in EXAMPLE 10.
After adding of 5 μL each of the culture media and cell extracts obtained in EXAMPLE 10 and EXAMPLE 12, respectively, to 100 μL of TE containing 1 μg of coelenterazine (manufactured by JNC Corp.), a luminescence reaction was started. The luminescence activity was measured for 60 seconds using a luminometer (manufactured by Atto Inc.: AB2200), and the maximum intensity of luminescence (Imax) was given as a percentage (%).

Molecule | luminescence activity higher than that of coelenterazine [1] | secretion of nanoKAZ into the culture medium in the presence of brefeldin A [2] | secretion of nanoKAZ into the culture medium in the presence of brefeldin A [3] | Relative luminescence activity (%, Imax) pCold-ZZ-P- [4] [%] | Relative luminescence activity (%, Imax) pCold- [4] [%] | Relative luminescence activity (%, Imax) pcDNA3- Cell extracts (CHO-K1 cells) [%] | Relative luminescence activity (%, Imax) pcDNA3- Culture medium (CHO-K1 cells) [%] | Relative luminescence activity (%, Imax) pcDNA3-GLsp- Cell extracts (CHO-K1 cells) [%] | Relative luminescence activity (%, Imax) pcDNA3-GLsp- Culture medium (CHO-K1 cells) [%] | Relative luminescence activity (Imax) 6h-f-CTZ [1] | Relative luminescence activity (Imax) bis-CTZ [1] | Relative luminescence activity (Imax) CTZ [1] | Relative luminescence activity (Imax) f-CTZ [1] | Relative luminescence activity (Imax) h-CTZ [1] | activity compared with nanoKAZ (in words) ([1]; substrates bis-CTZ, 6h-f-CTZ, h-CTZ and f-CTZ)
O=c1c(Cc2ccc(F)cc2)nc2c(Cc3ccccc3)[nH]c(-c3ccccc3)cn1-2 [6h-f-coelenterazine, reference compound] | approximately 10 times | – | – | – | – | – | – | – | – | – | – | – | – | – | –
C[C@H]1CCC/C=C/[C@@H]2C[C@H](O)C[C@H]2[C@H](O)/C=C/C(=O)O1 [brefeldin A] | – | markedly inhibited | secreted | – | – | – | – | – | – | – | – | – | – | – | –
O=c1c(Cc2ccc(F)cc2)nc2c(Cc3ccccc3)[nH]c(-c3ccc(O)cc3)cn1-2 [f-CTZ, f-coelenterazine, reference compound] | 10 times | – | – | – | – | – | – | – | – | – | – | – | – | – | –
Oc1ccc(-c2cn3c(O)c(Cc4ccccc4)nc3c(Cc3ccccc3)n2)cc1 [h-CTZ, h-coelenterazine, reference compound] | 10 times | – | – | – | – | – | – | – | – | – | – | – | – | – | –
bis-coelenterazine [reference compound] | approximately 10 times | – | – | – | – | – | – | – | – | – | – | – | – | – | –
nanoKAZ: mutated 19 kDa catalytic protein of Oplophorus luciferase with 16 mutations, amino acid sequence SEQ ID NO: 2 [reference compound] | – | – | – | 100 | 100 | 29.4 | 100 | 4.8 | 100 | 7.00 | 6.93 | 1.00 | 12.65 | 11.76 | –
ΔN2T-nKAZ: nanoKAZ (SEQ ID NO: 2) with deletion of the phenylalanine residue at the first amino acid; SEQ ID NO: 4 | – | – | – | 93.4 | – | 23.3 | 93.4 | 3.4 | 97.0 | 8.02 | 8.99 | 1.03 | 15.04 | 13.38 | higher activity than nanoKAZ
ΔN3L-nKAZ: nanoKAZ with 2 amino-terminal amino acids deleted; SEQ ID NO: 6 | – | – | – | 82.0 | – | 16.2 | 50.6 | 4.4 | 87.7 | 5.25 | 5.39 | 0.50 | 9.88 | 9.39 | –
ΔN4E-nKAZ: nanoKAZ with 3 amino-terminal amino acids deleted; SEQ ID NO: 8 | – | – | – | 74.0 | – | 9.7 | 4.6 | 2.9 | 60.5 | 0.36 | 0.35 | 0.05 | 0.70 | 0.58 | –
ΔN5D-nKAZ: nanoKAZ with 4 amino-terminal amino acids deleted; SEQ ID NO: 10 | – | – | – | 73.6 | 87.0 | 1.5 | 0.1 | 1.7 | 56.2 | 0.01 | 0.01 | 0.01 | 0.02 | 0.01 | –
